Data published in patent US20230301300A1, “HERBICIDAL COMPOSITIONS” (SYNGENTA CROP PROTECTION AG, priority 2020, published 2023).

Legend:
Test in all cases: B2 Post-Emergence Efficacy - Test 2
Assay type in all cases: in vivo
Lolium perenne (LOLPE) = conditions: 15 days after application, 0-100 scale
Procedure, shortened: (§1)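 Visual phytotoxicity on a 0–100 scale, where 100 means total kill, was recorded 15 days following a single post-emergence spray. The spray was an aqueous dilution of active ingredient in IF50 with 0.2% v/v Genapol X080, applied to 12-day-old plants.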

Avena fatua (AVEFA) = conditions: 15 days after application, 0-100 scale
Procedure, shortened: as §1

[1] = test system: Xanthium strumarium (XANST); conditions: 15 days after application, 0-100 scale
Procedure, shortened: as §1

Brassica napus (BRSNN) = conditions: 15 days after application, 0-100 scale
Procedure, shortened: as §1

Glycine max (GLXMA) = conditions: 15 days after application; for Herbicidal activity GLXMA: 0-100 scale; for Herbicidal activity on a 0-100 scale, GLXMA: 0=no damage, 100=total kill
Procedure, shortened: as §1

Bromus tectorum (BROTE) = conditions: 15 days after application, 0-100 scale
Procedure, shortened: as §1

Eleisine indica (ELEIN) = conditions: 15 days after application, 0=no damage, 100=total kill
Procedure, shortened: as §1

[2] = test system: Panicum miliaceum (PANMI); conditions: 15 days after application, 0=no damage, 100=total kill
Procedure, shortened: as §1

Sorghum bicolour (SORVU) = conditions: 15 days after application, 0=no damage, 100=total kill
Procedure, shortened: as §1

Sinapis arvensis (SINAR) = conditions: 15 days after application, 0-100 scale
Procedure, shortened: as §1

[3] = test system: Euphorbia hetrophylla (EPHHL); conditions: 15 days after application, 0-100 scale
Procedure, shortened: as §1

Sida spinosa (SIDSP) = conditions: 15 days after application, 0-100 scale
Procedure, shortened: as §1

Zea mays (ZEAMX) = conditions: 15 days after application; for Herbicidal activity ZEAMX: 0-100 scale; for Herbicidal activity on a 0-100 scale, ZEAMX: 0=no damage, 100=total kill
Procedure, shortened: as §1

Galium aparine (GALAP) = conditions: 15 days after application, 0-100 scale
Procedure, shortened: as §1

[4] = test system: Ipomoea hederacea (IPOHE); conditions: 15 days after application, 0-100 scale
Procedure, shortened: as §1

Poa annua (POAAN) = conditions: 15 days after application, 0-100 scale
Procedure, shortened: as §1

Beta vulgaris (BEAVA) = conditions: 15 days after application, 0-100 scale
Procedure, shortened: as §1

Cc1nn(C)c(=O)c(-c2c(F)ccc(Cl)c2CCc2ccccc2C(F)(F)F)c1O [Compound 1.066, 4-[3-chloro-6-fluoro-2-[2-[2-(trifluoromethyl)phenyl]ethyl]phenyl]-5-hydroxy-2,6-dimethyl-pyridazin-3-one]
Herbicidal activity LOLPE (Lolium perenne (LOLPE); 15 g/Ha): 10
Herbicidal activity LOLPE (Lolium perenne (LOLPE); 30 g/Ha): 20
Herbicidal activity LOLPE (Lolium perenne (LOLPE); 60 g/Ha): 80
Herbicidal activity LOLPE (Lolium perenne (LOLPE); 125 g/Ha): 90
Herbicidal activity LOLPE (Lolium perenne (LOLPE); 250 g/Ha): 90
Herbicidal activity LOLPE (Lolium perenne (LOLPE); 500 g/Ha): 100
Herbicidal activity AVEFA (Avena fatua (AVEFA); 15 g/Ha): 0
Herbicidal activity AVEFA (Avena fatua (AVEFA); 30 g/Ha): 20
Herbicidal activity AVEFA (Avena fatua (AVEFA); 60 g/Ha): 40
Herbicidal activity AVEFA (Avena fatua (AVEFA); 125 g/Ha): 90
Herbicidal activity AVEFA (Avena fatua (AVEFA); 250 g/Ha): 90
Herbicidal activity AVEFA (Avena fatua (AVEFA); 500 g/Ha): 90
Herbicidal activity XANST ([1]; 60 g/Ha): 90
Herbicidal activity XANST ([1]; 250 g/Ha): 100
Herbicidal activity XANST ([1]; 500 g/Ha): 100
Herbicidal activity BRSNN (Brassica napus (BRSNN); 15 g/Ha): 90
Herbicidal activity BRSNN (Brassica napus (BRSNN); 30 g/Ha): 90
Herbicidal activity BRSNN (Brassica napus (BRSNN); 60 g/Ha): 90
Herbicidal activity BRSNN (Brassica napus (BRSNN); 125 g/Ha): 90
Herbicidal activity BRSNN (Brassica napus (BRSNN); 250 g/Ha): 90
Herbicidal activity BRSNN (Brassica napus (BRSNN); 500 g/Ha): 90
Herbicidal activity GLXMA (Glycine max (GLXMA); 15 g/Ha): 20
Herbicidal activity on a 0-100 scale, GLXMA (Glycine max (GLXMA); 15 g/Ha): 20
Herbicidal activity GLXMA (Glycine max (GLXMA); 30 g/Ha): 40
Herbicidal activity on a 0-100 scale, GLXMA (Glycine max (GLXMA); 30 g/Ha): 40
Herbicidal activity GLXMA (Glycine max (GLXMA); 60 g/Ha): 70
Herbicidal activity on a 0-100 scale, GLXMA (Glycine max (GLXMA); 60 g/Ha): 70
Herbicidal activity GLXMA (Glycine max (GLXMA); 125 g/Ha): 70
Herbicidal activity on a 0-100 scale, GLXMA (Glycine max (GLXMA); 125 g/Ha): 70
Herbicidal activity GLXMA (Glycine max (GLXMA); 250 g/Ha): 90
Herbicidal activity on a 0-100 scale, GLXMA (Glycine max (GLXMA); 250 g/Ha): 90
Herbicidal activity GLXMA (Glycine max (GLXMA); 500 g/Ha): 90
Herbicidal activity on a 0-100 scale, GLXMA (Glycine max (GLXMA); 500 g/Ha): 90
Herbicidal activity BROTE (Bromus tectorum (BROTE); 15 g/Ha): 0
Herbicidal activity BROTE (Bromus tectorum (BROTE); 30 g/Ha): 20
Herbicidal activity BROTE (Bromus tectorum (BROTE); 60 g/Ha): 60
Herbicidal activity BROTE (Bromus tectorum (BROTE); 125 g/Ha): 70
Herbicidal activity BROTE (Bromus tectorum (BROTE); 250 g/Ha): 80
Herbicidal activity BROTE (Bromus tectorum (BROTE); 500 g/Ha): 90
Herbicidal activity on a 0-100 scale, ELEIN (Eleisine indica (ELEIN); 15 g/Ha): 0
Herbicidal activity on a 0-100 scale, ELEIN (Eleisine indica (ELEIN); 30 g/Ha): 20
Herbicidal activity on a 0-100 scale, ELEIN (Eleisine indica (ELEIN); 60 g/Ha): 70
Herbicidal activity on a 0-100 scale, ELEIN (Eleisine indica (ELEIN); 125 g/Ha): 70
Herbicidal activity on a 0-100 scale, ELEIN (Eleisine indica (ELEIN); 250 g/Ha): 70
Herbicidal activity on a 0-100 scale, ELEIN (Eleisine indica (ELEIN); 500 g/Ha): 80
Herbicidal activity on a 0-100 scale, PANMI ([2]; 15 g/Ha): 0
Herbicidal activity on a 0-100 scale, PANMI ([2]; 30 g/Ha): 50
Herbicidal activity on a 0-100 scale, PANMI ([2]; 60 g/Ha): 60
Herbicidal activity on a 0-100 scale, PANMI ([2]; 125 g/Ha): 80
Herbicidal activity on a 0-100 scale, PANMI ([2]; 250 g/Ha): 100
Herbicidal activity on a 0-100 scale, PANMI ([2]; 500 g/Ha): 100
Herbicidal activity on a 0-100 scale, SORVU (Sorghum bicolour (SORVU); 15 g/Ha): 0
Herbicidal activity on a 0-100 scale, SORVU (Sorghum bicolour (SORVU); 30 g/Ha): 20
Herbicidal activity on a 0-100 scale, SORVU (Sorghum bicolour (SORVU); 60 g/Ha): 60
Herbicidal activity on a 0-100 scale, SORVU (Sorghum bicolour (SORVU); 125 g/Ha): 80
Herbicidal activity on a 0-100 scale, SORVU (Sorghum bicolour (SORVU); 250 g/Ha): 90
Herbicidal activity on a 0-100 scale, SORVU (Sorghum bicolour (SORVU); 500 g/Ha): 100
Herbicidal activity SINAR (Sinapis arvensis (SINAR); 15 g/Ha): 60
Herbicidal activity SINAR (Sinapis arvensis (SINAR); 30 g/Ha): 60
Herbicidal activity SINAR (Sinapis arvensis (SINAR); 60 g/Ha): 80
Herbicidal activity SINAR (Sinapis arvensis (SINAR); 125 g/Ha): 90
Herbicidal activity SINAR (Sinapis arvensis (SINAR); 250 g/Ha): 90
Herbicidal activity SINAR (Sinapis arvensis (SINAR); 500 g/Ha): 90
Herbicidal activity EPHHL ([3]; 15 g/Ha): 60
Herbicidal activity EPHHL ([3]; 30 g/Ha): 70
Herbicidal activity EPHHL ([3]; 60 g/Ha): 80
Herbicidal activity EPHHL ([3]; 125 g/Ha): 90
Herbicidal activity EPHHL ([3]; 250 g/Ha): 100
Herbicidal activity EPHHL ([3]; 500 g/Ha): 100
Herbicidal activity SIDSP (Sida spinosa (SIDSP); 15 g/Ha): 40
Herbicidal activity SIDSP (Sida spinosa (SIDSP); 30 g/Ha): 80
Herbicidal activity SIDSP (Sida spinosa (SIDSP); 60 g/Ha): 80
Herbicidal activity SIDSP (Sida spinosa (SIDSP); 125 g/Ha): 90
Herbicidal activity SIDSP (Sida spinosa (SIDSP); 250 g/Ha): 90
Herbicidal activity SIDSP (Sida spinosa (SIDSP); 500 g/Ha): 100
Herbicidal activity ZEAMX (Zea mays (ZEAMX); 15 g/Ha): 0
Herbicidal activity on a 0-100 scale, ZEAMX (Zea mays (ZEAMX); 15 g/Ha): 0
Herbicidal activity ZEAMX (Zea mays (ZEAMX); 30 g/Ha): 20
Herbicidal activity on a 0-100 scale, ZEAMX (Zea mays (ZEAMX); 30 g/Ha): 20
Herbicidal activity ZEAMX (Zea mays (ZEAMX); 60 g/Ha): 20
Herbicidal activity on a 0-100 scale, ZEAMX (Zea mays (ZEAMX); 60 g/Ha): 20
Herbicidal activity ZEAMX (Zea mays (ZEAMX); 125 g/Ha): 20
Herbicidal activity on a 0-100 scale, ZEAMX (Zea mays (ZEAMX); 125 g/Ha): 20
Herbicidal activity ZEAMX (Zea mays (ZEAMX); 250 g/Ha): 30
Herbicidal activity on a 0-100 scale, ZEAMX (Zea mays (ZEAMX); 250 g/Ha): 30
Herbicidal activity ZEAMX (Zea mays (ZEAMX); 500 g/Ha): 70
Herbicidal activity on a 0-100 scale, ZEAMX (Zea mays (ZEAMX); 500 g/Ha): 70
Herbicidal activity GALAP (Galium aparine (GALAP); 15 g/Ha): 20
Herbicidal activity GALAP (Galium aparine (GALAP); 30 g/Ha): 20
Herbicidal activity GALAP (Galium aparine (GALAP); 60 g/Ha): 20
Herbicidal activity GALAP (Galium aparine (GALAP); 125 g/Ha): 20
Herbicidal activity GALAP (Galium aparine (GALAP); 250 g/Ha): 30
Herbicidal activity GALAP (Galium aparine (GALAP); 500 g/Ha): 90
Herbicidal activity IPOHE ([4]; 15 g/Ha): 70
Herbicidal activity IPOHE ([4]; 30 g/Ha): 90
Herbicidal activity IPOHE ([4]; 60 g/Ha): 90
Herbicidal activity IPOHE ([4]; 125 g/Ha): 100
Herbicidal activity IPOHE ([4]; 250 g/Ha): 100
Herbicidal activity IPOHE ([4]; 500 g/Ha): 100
Herbicidal activity POAAN (Poa annua (POAAN); 15 g/Ha): 20
Herbicidal activity POAAN (Poa annua (POAAN); 30 g/Ha): 70
Herbicidal activity POAAN (Poa annua (POAAN); 60 g/Ha): 80
Herbicidal activity POAAN (Poa annua (POAAN); 125 g/Ha): 90
Herbicidal activity POAAN (Poa annua (POAAN); 250 g/Ha): 90
Herbicidal activity POAAN (Poa annua (POAAN); 500 g/Ha): 90
Herbicidal activity BEAVA (Beta vulgaris (BEAVA); 15 g/Ha): 80
Herbicidal activity BEAVA (Beta vulgaris (BEAVA); 30 g/Ha): 80
Herbicidal activity BEAVA (Beta vulgaris (BEAVA); 60 g/Ha): 80
Herbicidal activity BEAVA (Beta vulgaris (BEAVA); 125 g/Ha): 80
Herbicidal activity BEAVA (Beta vulgaris (BEAVA); 250 g/Ha): 80
Herbicidal activity BEAVA (Beta vulgaris (BEAVA); 500 g/Ha): 90
